Laboratory results taken from patent US11535611B2, “Pyrazolo[3,4-B]pyridines and imidazo[1,5-B]pyridazines as PDE1 inhibitors” (H. Lundbeck A/S, priority 2017, dated 2022).
pIC50: −log10 of the molar value.

Experiments:
Format in all cases: biochemical
PDE1C = PDE1C (Homo sapiens (Human), UniProt Q14123); assay: PDE1 inhibition assay, PDE1C; conditions: for inhibition at 1 µM: @ 1 μM compound, read-out: PDE1 C, % inhibition @ 1 μM; for pIC50: 15 nM tritium labelled cAMP, 1 hr at room temperature, SPA beads, read-out: PDE1 C, IC50
Sequence of PDE1C (Q14123 whole entry): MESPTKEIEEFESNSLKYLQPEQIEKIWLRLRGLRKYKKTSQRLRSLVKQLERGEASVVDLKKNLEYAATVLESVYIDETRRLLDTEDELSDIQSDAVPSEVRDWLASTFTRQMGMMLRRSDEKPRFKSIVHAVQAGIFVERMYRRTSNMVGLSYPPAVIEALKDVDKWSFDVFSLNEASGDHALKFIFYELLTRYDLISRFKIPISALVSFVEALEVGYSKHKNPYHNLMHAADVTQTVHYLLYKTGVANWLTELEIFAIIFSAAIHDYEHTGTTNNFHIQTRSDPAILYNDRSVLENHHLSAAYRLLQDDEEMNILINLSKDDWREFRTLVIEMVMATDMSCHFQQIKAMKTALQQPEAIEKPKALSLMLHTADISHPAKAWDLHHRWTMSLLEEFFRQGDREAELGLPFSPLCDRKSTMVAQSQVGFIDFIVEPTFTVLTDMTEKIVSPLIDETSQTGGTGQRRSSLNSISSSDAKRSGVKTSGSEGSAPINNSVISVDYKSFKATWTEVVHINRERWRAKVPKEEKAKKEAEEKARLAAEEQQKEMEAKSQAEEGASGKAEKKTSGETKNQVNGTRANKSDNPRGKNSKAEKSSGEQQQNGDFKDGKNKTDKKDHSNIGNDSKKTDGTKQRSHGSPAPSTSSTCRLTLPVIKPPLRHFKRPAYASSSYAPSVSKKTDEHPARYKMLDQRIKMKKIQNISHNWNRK
Description: (§1) PDE1A, PDE1B and PDE1C assays were performed as follows: the assays were performed in 60 μL samples containing a fixed amount of the PDE1 enzyme (sufficient to convert 20-25% of the cyclic nucleotide substrate), a buffer (50 mM HEPES (4-(2-hydroxyethyl)-1-piperazineethanesulfonic acid) pH 7.6; 10 mM MgCl2; 0.02% Tween20), 0.1 mg/ml BSA (bovine serum albumin), 15 nM tritium labelled cAMP and varying amounts of inhibitors. Reactions were initiated by addition of the cyclic nucleotide substrate, and reactions were allowed to proceed for 1 hr at room temperature before being terminated through mixing with 20 μL (0.2 mg) yttrium silicate SPA beads (PerkinElmer). The beads were allowed to settle for 1 hour in the dark before the plates were counted in a Wallac 1450 Microbeta counter. The measured signals were converted to activity relative to an uninhibited control (100%) and IC50 values were calculated using XIFit (model 205, IDBS).

PDE1A = PDE1A (Homo sapiens (Human), UniProt P54750); assay: PDE1 inhibition assay, PDE1A; conditions: for inhibition at 1 µM: @ 1 μM compound; for pIC50: 15 nM tritium labelled cAMP, 1 hr at room temperature, SPA beads
Sequence of PDE1A (P54750 whole entry): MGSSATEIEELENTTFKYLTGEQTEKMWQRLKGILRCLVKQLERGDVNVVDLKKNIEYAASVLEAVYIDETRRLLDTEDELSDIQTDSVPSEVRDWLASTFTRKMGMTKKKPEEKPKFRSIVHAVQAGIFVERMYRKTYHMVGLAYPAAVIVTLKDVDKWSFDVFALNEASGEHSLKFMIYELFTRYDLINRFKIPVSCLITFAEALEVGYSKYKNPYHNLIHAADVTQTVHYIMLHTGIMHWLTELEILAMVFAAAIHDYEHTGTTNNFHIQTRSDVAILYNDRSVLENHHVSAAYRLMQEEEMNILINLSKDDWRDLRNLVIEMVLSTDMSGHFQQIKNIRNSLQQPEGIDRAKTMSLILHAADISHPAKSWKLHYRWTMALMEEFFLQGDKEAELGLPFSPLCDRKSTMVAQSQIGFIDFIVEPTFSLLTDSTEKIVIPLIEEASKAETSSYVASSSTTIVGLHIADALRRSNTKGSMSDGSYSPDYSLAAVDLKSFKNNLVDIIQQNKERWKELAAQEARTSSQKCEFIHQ
Description: as §1

PDE1B = PDE1B (Homo sapiens (Human), UniProt Q01064); assay: PDE1 inhibition assay, PDE1B; conditions: 15 nM tritium labelled cAMP, 1 hr at room temperature, SPA beads; read-out: PDE1 B, IC50
Sequence of PDE1B (Q01064 whole entry): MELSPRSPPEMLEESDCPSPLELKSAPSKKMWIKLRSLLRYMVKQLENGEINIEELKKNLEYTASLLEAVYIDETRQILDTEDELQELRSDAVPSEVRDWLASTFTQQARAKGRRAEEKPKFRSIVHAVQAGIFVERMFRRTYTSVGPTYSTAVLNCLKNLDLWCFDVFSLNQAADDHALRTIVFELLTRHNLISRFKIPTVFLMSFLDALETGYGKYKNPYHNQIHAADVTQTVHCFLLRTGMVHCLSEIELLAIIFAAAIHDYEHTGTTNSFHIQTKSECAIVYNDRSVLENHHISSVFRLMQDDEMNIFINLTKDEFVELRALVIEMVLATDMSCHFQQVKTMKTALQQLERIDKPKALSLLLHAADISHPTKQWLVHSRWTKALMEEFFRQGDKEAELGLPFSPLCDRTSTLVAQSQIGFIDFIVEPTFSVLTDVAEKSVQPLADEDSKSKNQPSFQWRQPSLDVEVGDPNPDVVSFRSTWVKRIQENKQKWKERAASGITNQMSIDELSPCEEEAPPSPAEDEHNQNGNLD
Description: as §1

Row | SMILES | inhibition at 1 µM (PDE1C) [%] | inhibition at 1 µM (PDE1A) [%] | pIC50 (PDE1B) | pIC50 (PDE1C) | pIC50 (PDE1A) | inhibition at 10 µM (PDE1A; @ 10 μM compound) [%]
1 | CCOc1ncccc1-c1cc(N2CCCC2)c2c(cnn2C2CCOC2)n1 (racemic) [Example 3, (±)-5-(2-ethoxy-3-pyridyl)-7-pyrrolidin-1-yl-1-tetrahydrofuran-3-yl-pyrazolo[4,3-b]pyridine] | 29 | 27 | 6.26 |  |  | 
2 | CCOc1ncccc1-c1cc(NC2CCOC2)c2c(cnn2C2COC2)n1 (racemic) [Example 5, (±)-5-(2-ethoxy-3-pyridyl)-1-(oxetan-3-yl)-N-tetrahydrofuran-3-yl-pyrazolo[4,3-b]pyridin-7-amine] | 20 | 47 | 6.35 |  |  | 
3 | CCOc1ncccc1-c1cc(NCC2CCC(=O)N2C)c2c(n1)c(C)nn2C(C)C (racemic) [Example 67, (±)-5-[[[5-(2-ethoxy-3-pyridyl)-1-isopropyl-3-methyl-pyrazolo[4,3-b]pyridin-7-yl]amino]methyl]-1-methyl-pyrrolidin-2-one] |  |  | 7.96 | 6.97 | 7.15 | 
4 | CCOc1ncccc1-c1ccn2c(C(C)CC)nc(C)c2n1 (racemic) [Example 76, (±)-2-(2-ethoxy-3-pyridyl)-8-methyl-6-sec-butyl-imidazo[1,5-a]pyrimidine] |  |  | 8.05 | 6.95 | 7.21 | 
5 | CCOc1ncccc1-c1ccn2c(C3CCOC3)nc(C)c2n1 (racemic) [Example 81, (±)-2-(2-ethoxy-3-pyridyl)-8-methyl-6-tetrahydrofuran-3-yl-imidazo[1,5-a]pyrimidine] |  |  | 6.84 | 5.79 | 5.95 | 
6 | CCOc1ncccc1-c1cc(N2CCC(C)(F)C2)c2c(cnn2C)n1 (racemic) [Example 87, (±)-5-(2-ethoxy-3-pyridyl)-7-(3-fluoro-3-methyl-pyrrolidin-1-yl)-1-methyl-pyrazolo[4,3-b]pyridine] | 26 | 42 | 6.42 |  |  | 
7 | CCOc1ncccc1-c1cc(N[C@@H]2COC[C@H]2OC)c2c(cnn2C(C)C)n1 (relative stereo) [Example 11, 5-(2-ethoxy-3-pyridyl)-1-isopropyl-N-[trans-4-methoxytetrahydrofuran-3-yl]pyrazolo[4,3-b]pyridin-7-amine] |  |  | 7.09 | 5.83 | 6.24 | 
8 | CCOc1ncccc1-c1cc(N[C@@H]2CCOC2)c2c(cnn2CC)n1 (single isomer, unassigned) [Example 19, 5-(2-ethoxy-3-pyridyl)-1-ethyl-N-[tetrahydrofuran-3-yl]pyrazolo[4,3-b]pyridin-7-amine] |  |  | 7.07 | 5.51 | 6.49 | 
9 | CCOc1ncccc1-c1cc(N[C@@H]2CCOC2)c2c(cnn2CC)n1 (single isomer, unassigned) [Example 20, 5-(2-ethoxy-3-pyridyl)-1-ethyl-N-[tetrahydrofuran-3-yl]pyrazolo[4,3-b]pyridin-7-amine] |  |  | 6.75 | 6.02 | 6.33 | 
10 | CCOc1ncccc1-c1cc(N[C@H]2CCOC2)c2c(cnn2C(C)C)n1 (single isomer, unassigned) [Example 21, 5-(2-ethoxy-3-pyridyl)-1-isopropyl-N-[tetrahydrofuran-3-yl]pyrazolo[4,3-b]pyridin-7-amine] |  |  | 7.32 |  |  | 
11 | CCOc1ncccc1-c1cc(N[C@H]2CCOC2)c2c(cnn2C(C)C)n1 (single isomer, unassigned) [Example 22, 5-(2-ethoxy-3-pyridyl)-1-isopropyl-N-[tetrahydrofuran-3-yl]pyrazolo[4,3-b]pyridin-7-amine] |  |  | 7.49 |  |  | 
12 | CCCn1ncc2nc(-c3cccnc3OCC)cc(N[C@@H]3CCOC3)c21 (single isomer, unassigned) [Example 23, 5-(2-ethoxy-3-pyridyl)-1-propyl-N-[tetrahydrofuran-3-yl]pyrazolo[4,3-b]pyridin-7-amine] |  |  | 6.77 | 5.59 | 6.32 | 
13 | CCCn1ncc2nc(-c3cccnc3OCC)cc(N[C@@H]3CCOC3)c21 (single isomer, unassigned) [Example 24, 5-(2-ethoxy-3-pyridyl)-1-propyl-N-[tetrahydrofuran-3-yl]pyrazolo[4,3-b]pyridin-7-amine] |  |  | 6.75 | 6.15 | 6.49 | 
14 | CCOc1ncccc1-c1ccn2c([C@H](C)CC)nc(C)c2n1 (single isomer, unassigned) [Example 83, 2-(2-ethoxy-3-pyridyl)-8-methyl-6-[1-methylpropyl]imidazo[1,5-a]pyrimidine] |  |  | 8.22 | 7.11 | 7.29 | 
15 | CCOc1ncccc1-c1ccn2c([C@H](C)CC)nc(C)c2n1 (single isomer, unassigned) [Example 84, 2-(2-ethoxy-3-pyridyl)-8-methyl-6-[1-methylpropyl]imidazo[1,5-a]pyrimidine] |  |  | 7.48 | 6.49 | 6.80 | 
16 | CCOc1ncncc1-c1cc(NC2CCOC2)c2c(cnn2C(C)C)n1 (stereo in doubt) [Example 50, 5-(4-ethoxypyrimidin-5-yl)-1-isopropyl-N-[(3R)-tetrahydrofuran-3-yl]pyrazolo[4,3-b]pyridin-7-amine] |  |  | 6.04 | 5.74 | 5.52 | 
17 | CCOc1ncccc1-c1cc(N2CCCC2)c2c(n1)c(C)nn2C [Example 1, 5-(2-ethoxy-3-pyridyl)-1,3-dimethyl-7-pyrrolidin-1-yl-pyrazolo[4,3-b]pyridine] | 49 | 70 | 6.77 |  |  | 
18 | CCOc1ncccc1-c1cc(NC2CCOC2)c2c(cnn2C2CCOC2)n1 (centres unmarked) [Example 2, 5-(2-ethoxy-3-pyridyl)-N,1-di(tetrahydrofuran-3-yl)pyrazolo[4,3-b]pyridin-7-amine] |  | 13 | 6.35 | 6.39 |  | 
19 | CCOc1ncccc1-c1cc(N2CCCC2)c2c(cnn2C2COC2)n1 [Example 4, 5-(2-ethoxy-3-pyridyl)-1-(oxetan-3-yl)-7-pyrrolidin-1-yl-pyrazolo[4,3-b]pyridine] | 56 |  | 7.02 |  | 6.19 | 
20 | CCOc1ncccc1-c1cc(NC[C@@H]2CCCO2)c2c(cnn2C(C)C)n1 [Example 6, 5-(2-ethoxy-3-pyridyl)-1-isopropyl-N-[[(2S)-tetrahydrofuran-2-yl]methyl]pyrazolo[4,3-b]pyridin-7-amine] |  |  | 6.95 | 5.86 | 6.19 | 
21 | CCOc1ncccc1-c1cc(NC[C@H]2CCCO2)c2c(cnn2C(C)C)n1 [Example 7, 5-(2-ethoxy-3-pyridyl)-1-isopropyl-N-[[(2R)-tetrahydrofuran-2-yl]methyl]pyrazolo[4,3-b]pyridin-7-amine] |  |  | 7.08 | 5.77 | 6.35 | 
22 | CCOc1ncccc1-c1cc(N[C@@H]2CCCOC2)c2c(cnn2C(C)C)n1 [Example 8, 5-(2-ethoxy-3-pyridyl)-1-isopropyl-N-[(3R)-tetrahydropyran-3-yl]pyrazolo[4,3-b]pyridin-7-amine] |  |  | 6.37 | 5.54 | 5.67 | 
23 | CCOc1ncccc1-c1cc(N[C@H]2CCCOC2)c2c(cnn2C(C)C)n1 [Example 9, 5-(2-ethoxy-3-pyridyl)-1-isopropyl-N-[(3S)-tetrahydropyran-3-yl]pyrazolo[4,3-b]pyridin-7-amine] |  |  | 6.53 | 5.57 | 6.16 | 
24 | CCOc1ncccc1-c1cc(NC2CCOCC2)c2c(cnn2C(C)C)n1 [Example 10, 5-(2-ethoxy-3-pyridyl)-1-isopropyl-N-tetrahydropyran-4-yl-pyrazolo[4,3-b]pyridin-7-amine] |  |  | 6.90 | 5.57 |  | 71
25 | CCOc1ncccc1-c1cc(NC(C)C)c2c(cnn2C(C)C)n1 [Example 12, 5-(2-ethoxy-3-pyridyl)-N,1-diisopropyl-pyrazolo[4,3-b]pyridin-7-amine] |  |  | 6.97 | 5.65 | 5.95 | 
26 | CCOc1ncccc1-c1cc(NC)c2c(cnn2C(C)C)n1 [Example 13, 5-(2-ethoxy-3-pyridyl)-1-isopropyl-N-methyl-pyrazolo[4,3-b]pyridin-7-amine] |  |  | 7.07 | 5.98 | 5.99 | 
27 | CCOc1ncccc1-c1cc(N2CCCC2)c2c(cnn2C)n1 [Example 14, 5-(2-ethoxy-3-pyridyl)-1-methyl-7-pyrrolidin-1-yl-pyrazolo[4,3-b]pyridine] |  |  | 6.19 | 5.46 | 5.96 | 
28 | CCOc1ncccc1-c1nc2c(C)nn(CC)c2cc1C [Example 15, 5-(2-ethoxy-3-pyridyl)-1-ethyl-3,6-dimethyl-pyrazolo[4,3-b]pyridine] |  |  | 6.81 | 5.72 | 6.00 | 
29 | CCOc1ncccc1-c1cc(N2CCCC2)c2c(cnn2CC)n1 [Example 16, 5-(2-ethoxy-3-pyridyl)-1-ethyl-7-pyrrolidin-1-yl-pyrazolo[4,3-b]pyridine] |  |  | 6.89 | 5.74 | 6.34 | 
30 | CCOc1ncccc1-c1cc(N2CCCC2)c2c(cnn2C(C)C)n1 [Example 17, 5-(2-ethoxy-3-pyridyl)-1-isopropyl-7-pyrrolidin-1-yl-pyrazolo[4,3-b]pyridine] | 50 |  | 7.08 |  | 6.45 | 
